{
  "source": "the NIST ThermoML archive (doi:10.1016/j.fluid.2006.02.001)",
  "key": {"[1]": {"conditions": "visual observation"}, "[2]": {"assay": "Solid-liquid equilibrium temperature", "conditions": "Crystal, Closed cell"}, "[3]": {"assay": "Molar enthalpy of transition or fusion", "conditions": "Crystal; DSC"}},
  "note": "Numbers after ± are expanded uncertainties.",
  "data": [
    {"smiles": "CCCCCCCCCCCCCCCCCCCC", "note": "[eicosane]", "values": [
      {"measurement": "Normal melting temperature", "setting": "[1]; Crystal", "result": "36.36 ± 0.25", "unit": "°C"}
    ]},
    {"smiles": "CCCCCCCCCCCCCCCCCCO", "note": "[1-octadecanol]", "values": [
      {"measurement": "Normal melting temperature", "setting": "[1]; Crystal 1", "result": "57.00 ± 0.5", "unit": "°C"}
    ]},
    {"smiles": "CCCCCCCCCCCCC", "note": "[tridecane]", "values": [
      {"measurement": "Normal melting temperature", "setting": "[1]; Crystal", "result": "-4.14 ± 0.35", "unit": "°C"},
      {"measurement": "Solid-liquid equilibrium temperature", "setting": "[2]; 132350 kPa", "result": "293.15 ± 0.9", "unit": "K"},
      {"measurement": "Solid-liquid equilibrium temperature", "setting": "[2]; 196230 kPa", "result": "303.15 ± 1.2", "unit": "K"},
      {"measurement": "Solid-liquid equilibrium temperature", "setting": "[2]; 264630 kPa", "result": "313.15 ± 1.6", "unit": "K"},
      {"measurement": "Solid-liquid equilibrium temperature", "setting": "[2]; 337550 kPa", "result": "323.15 ± 1.9", "unit": "K"},
      {"measurement": "Solid-liquid equilibrium temperature", "setting": "[2]; 415000 kPa", "result": "333.15 ± 2.1", "unit": "K"},
      {"measurement": "Solid-liquid equilibrium temperature", "setting": "[2]; 496960 kPa", "result": "343.15 ± 2.5", "unit": "K"}
    ]},
    {"smiles": "CCCCCCCCCCCCCCCC", "note": "[hexadecane]", "values": [
      {"measurement": "Normal melting temperature", "setting": "[1]; Crystal", "result": "18.30 ± 0.25", "unit": "°C"}
    ]},
    {"smiles": "CCCCCCCCCCCCCCCCO", "note": "[1-hexadecanol]", "values": [
      {"measurement": "Normal melting temperature", "setting": "[1]; Crystal 1", "result": "49.1 ± 0.5", "unit": "°C"}
    ]},
    {"smiles": "CCCCCCCCCCCCCCCCCCCCO", "note": "[1-eicosanol]", "values": [
      {"measurement": "Normal melting temperature", "setting": "[1]; Crystal 1", "result": "64.52 ± 0.5", "unit": "°C"}
    ]},
    {"smiles": "C1CCCCC1", "note": "[cyclohexane]", "values": [
      {"measurement": "Normal melting temperature", "setting": "[1]; Crystal", "result": "7.0 ± 0.25", "unit": "°C"},
      {"measurement": "Solid-liquid equilibrium temperature", "setting": "[2]; 23390 kPa", "result": "293.15 ± 0.52", "unit": "K"},
      {"measurement": "Solid-liquid equilibrium temperature", "setting": "[2]; 45610 kPa", "result": "303.15 ± 0.89", "unit": "K"},
      {"measurement": "Solid-liquid equilibrium temperature", "setting": "[2]; 67600 kPa", "result": "313.15 ± 1.3", "unit": "K"},
      {"measurement": "Solid-liquid equilibrium temperature", "setting": "[2]; 89340 kPa", "result": "323.15 ± 1.7", "unit": "K"},
      {"measurement": "Solid-liquid equilibrium temperature", "setting": "[2]; 110840 kPa", "result": "333.15 ± 2.1", "unit": "K"},
      {"measurement": "Solid-liquid equilibrium temperature", "setting": "[2]; 132100 kPa", "result": "343.15 ± 2.5", "unit": "K"}
    ]},
    {"smiles": "CCC(=O)C(C)=O", "note": "[2,3-pentanedione]", "values": [
      {"measurement": "Normal melting temperature", "setting": "[1]; Crystal 1", "result": "-52.00 ± 0.5", "unit": "°C"},
      {"measurement": "Solid-liquid equilibrium temperature", "setting": "[2]; 697870 kPa", "result": "293.15 ± 2.6", "unit": "K"},
      {"measurement": "Solid-liquid equilibrium temperature", "setting": "[2]; 807350 kPa", "result": "303.15 ± 2.6", "unit": "K"},
      {"measurement": "Solid-liquid equilibrium temperature", "setting": "[2]; 947230 kPa", "result": "313.15 ± 2.5", "unit": "K"},
      {"measurement": "Solid-liquid equilibrium temperature", "setting": "[2]; 1117520 kPa", "result": "323.15 ± 2.5", "unit": "K"},
      {"measurement": "Solid-liquid equilibrium temperature", "setting": "[2]; 1318200 kPa", "result": "333.15 ± 2.5", "unit": "K"},
      {"measurement": "Solid-liquid equilibrium temperature", "setting": "[2]; 1549280 kPa", "result": "343.15 ± 2.8", "unit": "K"},
      {"measurement": "Molar enthalpy of transition or fusion", "setting": "[3]", "result": "1.87 ± 0.055", "unit": "kcal/mol"}
    ]}
  ]
}
